In brackets after ≈: the same amount, converted by molar mass. Like-named read-outs stand apart in the source and are kept apart here.
Key:
[1] = system: M. smegmatis cells, ΔpH; assay type: cell-based, Mycobacterium smegmatis
[2] = biological target: M. smegmatis MenA (MsMenA) (Mycolicibacterium smegmatis, UniProt A0QR52); details: read-out: MenA IC50; same assay as used here; cited from earlier work
[3] = system: E. coli IMVs, ΔpH; test: ΔpH collapse in E. coli inverted membrane vesicles; assay type: biochemical, Escherichia coli; details: qualitative
[4] = system: M. tuberculosis; test: microbe, parasite or virus in culture; assay type: cell-based, Mycobacterium tuberculosis; details: for MIC: Mycobacterium tuberculosis
[5] = system: S. aureus (MRSA USA300 strain); test: microbe, parasite or virus in culture; assay type: cell-based; details: Staphylococcus aureus, MRSA|USA300, read-out: Sa MIC, MRSA USA300 strain
[6] = system: B. subtilis; test: microbe, parasite or virus in culture; assay type: cell-based; details: Bacillus subtilis
[7] = system: E. coli; test: microbe, parasite or virus in culture; assay type: cell-based; details: Escherichia coli
[8] = system: S. cerevisiae; test: microbe, parasite or virus in culture; assay type: cell-based, Saccharomyces cerevisiae; details: for IC50: Saccharomyces cerevisiae
[9] = system: C. albicans; test: microbe, parasite or virus in culture; assay type: cell-based; details: Candida albicans
[10] = system: MCF-7; test: cells; assay type: cell-based; details: Homo sapiens, MCF7, read-out: MCF-7 IC50
[11] = biological target: M. tuberculosis cis-farnesyl diphosphate synthase (Rv1086) (Mycobacterium tuberculosis, UniProt P9WFF5); test: cis-farnesyl diphosphate synthase inhibition; assay type: biochemical
[12] = biological target: M. tuberculosis cis-decaprenyl diphosphate synthase (Rv2361) (Mycobacterium tuberculosis, UniProt P9WFF7); test: cis-decaprenyl diphosphate synthase inhibition; assay type: biochemical
[13] = biological target: P. vivax geranylgeranyl diphosphate synthase (GGPPS) (Plasmodium vivax, UniProt A5K4U6); test: biochemical
[14] = biological target: S. aureus undecaprenyl diphosphate synthase (UPPS) (Staphylococcus aureus, UniProt P60477); test: S. aureus UPPS inhibition; assay type: biochemical
[15] = biological target: E. coli undecaprenyl diphosphate synthase (UPPS) (Escherichia coli, UniProt P60472); test: E. coli UPPS inhibition; assay type: biochemical
[16] = biological target: S. aureus farnesyl diphosphate synthase (FPPS) (Staphylococcus aureus, UniProt Q2FY48); test: biochemical
[17] = biological target: T1, SaCrtM (Staphylococcus aureus, UniProt A9JQL9); test: SaCrtM inhibition; assay type: biochemical, S. aureus
T1 sequence (A9JQL9 1-287): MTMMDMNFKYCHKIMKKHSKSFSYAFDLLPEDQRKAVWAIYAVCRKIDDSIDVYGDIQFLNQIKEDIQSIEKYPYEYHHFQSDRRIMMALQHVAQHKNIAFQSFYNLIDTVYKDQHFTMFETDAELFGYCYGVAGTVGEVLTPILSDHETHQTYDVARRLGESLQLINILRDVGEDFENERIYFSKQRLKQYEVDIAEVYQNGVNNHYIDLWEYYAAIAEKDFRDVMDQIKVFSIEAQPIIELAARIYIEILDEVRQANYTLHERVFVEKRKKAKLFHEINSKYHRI

[18] = biological target: T2, human SQS (Homo sapiens, UniProt P37268); test: Human SQS inhibition; assay type: biochemical
T2 sequence (P37268 1-417): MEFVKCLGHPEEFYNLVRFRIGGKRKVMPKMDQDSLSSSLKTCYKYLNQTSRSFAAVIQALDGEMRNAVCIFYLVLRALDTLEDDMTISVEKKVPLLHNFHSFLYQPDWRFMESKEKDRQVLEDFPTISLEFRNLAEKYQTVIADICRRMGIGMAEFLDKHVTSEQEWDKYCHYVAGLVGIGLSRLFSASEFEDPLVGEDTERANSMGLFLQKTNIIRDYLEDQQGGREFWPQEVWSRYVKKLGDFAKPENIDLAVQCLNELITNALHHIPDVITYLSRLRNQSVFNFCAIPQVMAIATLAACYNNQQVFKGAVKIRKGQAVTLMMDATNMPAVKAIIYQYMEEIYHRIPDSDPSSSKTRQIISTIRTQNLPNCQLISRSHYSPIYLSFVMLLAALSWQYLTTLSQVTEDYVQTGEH

[19] = system: nonreplicating M. tuberculosis (streptomycin-starved 18b); assay type: cell-based, Mycobacterium tuberculosis; details: for effect on nonreplicating bacterial activity (CFU): 7 days
[20] = biological target: M. smegmatis membrane dehydrogenases (NADH, deamino-NADH, succinate, lactate substrates); test: Dehydrogenase activities, MTT reduction, M. smegmatis membranes; assay type: biochemical, Mycobacterium smegmatis; details: in general (all substrates except malate)
[21] = biological target: malate dehydrogenase (Mycolicibacterium smegmatis, UniProt A0QVL2); test: Malate dehydrogenase activity, MTT reduction, M. smegmatis membranes; assay type: biochemical, Mycobacterium smegmatis
[22] = read-out: Bs IC50 (in parentheses)
[23] = read-out: Sc IC50 (in parentheses)
[24] = read-out: Ca IC50 (in parentheses)
[25] = read-out: Ec IC50 (in parentheses)

Chain of E. coli undecaprenyl diphosphate synthase (UPPS) (P60472 whole entry): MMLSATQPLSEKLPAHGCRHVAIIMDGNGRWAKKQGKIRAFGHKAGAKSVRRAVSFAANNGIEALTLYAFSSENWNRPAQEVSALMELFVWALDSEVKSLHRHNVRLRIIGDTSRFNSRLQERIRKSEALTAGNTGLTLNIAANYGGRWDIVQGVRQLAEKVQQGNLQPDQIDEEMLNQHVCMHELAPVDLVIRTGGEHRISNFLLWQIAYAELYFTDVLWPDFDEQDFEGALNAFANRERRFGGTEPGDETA
Chain of M. tuberculosis cis-decaprenyl diphosphate synthase (Rv2361) (P9WFF7 whole entry): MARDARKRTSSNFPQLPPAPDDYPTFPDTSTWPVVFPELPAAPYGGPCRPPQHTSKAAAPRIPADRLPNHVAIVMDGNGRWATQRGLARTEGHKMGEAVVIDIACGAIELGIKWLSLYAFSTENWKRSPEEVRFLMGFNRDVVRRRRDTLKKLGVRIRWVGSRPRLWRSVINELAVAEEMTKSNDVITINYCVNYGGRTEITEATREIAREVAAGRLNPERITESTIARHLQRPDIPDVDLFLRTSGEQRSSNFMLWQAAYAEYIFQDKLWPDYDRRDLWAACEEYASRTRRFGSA
Chain of malate dehydrogenase (A0QVL2 whole entry): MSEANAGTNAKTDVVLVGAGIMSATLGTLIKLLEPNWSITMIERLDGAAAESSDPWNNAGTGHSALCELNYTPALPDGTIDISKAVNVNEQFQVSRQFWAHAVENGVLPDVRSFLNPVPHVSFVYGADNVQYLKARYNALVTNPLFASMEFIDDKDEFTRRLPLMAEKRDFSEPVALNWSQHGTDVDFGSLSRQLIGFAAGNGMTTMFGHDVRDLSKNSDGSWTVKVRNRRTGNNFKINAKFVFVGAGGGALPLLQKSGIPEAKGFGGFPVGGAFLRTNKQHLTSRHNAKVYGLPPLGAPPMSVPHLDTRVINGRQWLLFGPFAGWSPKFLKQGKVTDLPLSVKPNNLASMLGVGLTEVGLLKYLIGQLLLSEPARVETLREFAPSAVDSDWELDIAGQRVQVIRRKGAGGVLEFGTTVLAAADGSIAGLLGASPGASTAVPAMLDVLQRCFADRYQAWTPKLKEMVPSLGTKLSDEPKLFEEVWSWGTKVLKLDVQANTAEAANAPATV
Chain of P. vivax geranylgeranyl diphosphate synthase (GGPPS) (A5K4U6 1-375): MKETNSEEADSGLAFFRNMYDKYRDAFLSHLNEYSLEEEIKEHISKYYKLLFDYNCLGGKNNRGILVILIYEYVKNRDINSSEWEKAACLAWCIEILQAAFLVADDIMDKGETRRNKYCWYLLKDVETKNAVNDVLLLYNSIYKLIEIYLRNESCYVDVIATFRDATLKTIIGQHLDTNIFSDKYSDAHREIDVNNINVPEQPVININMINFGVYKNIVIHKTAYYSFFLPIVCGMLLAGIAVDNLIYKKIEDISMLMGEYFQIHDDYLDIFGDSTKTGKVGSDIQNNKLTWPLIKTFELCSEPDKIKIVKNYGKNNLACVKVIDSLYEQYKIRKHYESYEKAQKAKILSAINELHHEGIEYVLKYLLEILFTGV
Chain of S. aureus undecaprenyl diphosphate synthase (UPPS) (P60477 whole entry): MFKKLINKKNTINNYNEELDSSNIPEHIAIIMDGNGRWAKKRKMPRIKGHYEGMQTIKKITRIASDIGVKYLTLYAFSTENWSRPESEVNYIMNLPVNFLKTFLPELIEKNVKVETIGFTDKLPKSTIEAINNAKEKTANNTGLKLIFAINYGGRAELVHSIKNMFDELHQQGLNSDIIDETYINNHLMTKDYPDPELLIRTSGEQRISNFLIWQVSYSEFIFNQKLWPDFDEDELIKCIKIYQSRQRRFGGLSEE
Chain of M. tuberculosis cis-farnesyl diphosphate synthase (Rv1086) (P9WFF5 whole entry): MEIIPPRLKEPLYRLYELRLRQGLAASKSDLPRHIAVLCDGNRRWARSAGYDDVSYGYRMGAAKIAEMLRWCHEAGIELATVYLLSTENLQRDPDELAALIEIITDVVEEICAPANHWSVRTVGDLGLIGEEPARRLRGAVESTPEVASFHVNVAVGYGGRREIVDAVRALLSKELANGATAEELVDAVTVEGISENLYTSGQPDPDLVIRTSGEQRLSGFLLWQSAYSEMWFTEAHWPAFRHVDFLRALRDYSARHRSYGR
Chain of S. aureus farnesyl diphosphate synthase (FPPS) (Q2FY48 1-293): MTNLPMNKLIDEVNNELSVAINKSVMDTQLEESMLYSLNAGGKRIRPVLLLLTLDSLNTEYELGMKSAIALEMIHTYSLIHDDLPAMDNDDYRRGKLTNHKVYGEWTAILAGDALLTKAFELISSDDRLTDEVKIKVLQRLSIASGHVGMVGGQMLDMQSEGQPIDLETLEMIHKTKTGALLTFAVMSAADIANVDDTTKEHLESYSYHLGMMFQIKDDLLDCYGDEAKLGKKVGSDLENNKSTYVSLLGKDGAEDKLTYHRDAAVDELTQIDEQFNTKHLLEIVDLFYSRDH
Chain of M. smegmatis MenA (MsMenA) (A0QR52 1-289): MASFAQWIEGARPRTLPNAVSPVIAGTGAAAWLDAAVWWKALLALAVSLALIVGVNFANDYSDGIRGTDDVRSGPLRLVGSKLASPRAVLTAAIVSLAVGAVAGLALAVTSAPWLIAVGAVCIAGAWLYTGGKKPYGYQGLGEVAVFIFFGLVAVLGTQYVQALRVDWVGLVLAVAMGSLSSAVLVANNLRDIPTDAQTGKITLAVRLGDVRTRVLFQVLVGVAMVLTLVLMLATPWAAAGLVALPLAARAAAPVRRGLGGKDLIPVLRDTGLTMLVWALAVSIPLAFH

SMILES	effect on pH gradient (ΔpH) [1]	MIC ([4]; read-out: Mt MIC) [µg/mL]	MIC [5] [µg/mL]	IC50 ([6]; read-out: Bs IC50) [µg/mL]	IC50 ([7]; read-out: Ec IC50) [µg/mL]	IC50 ([9]; read-out: Ca IC50) [µg/mL]	IC50 [10] [µg/mL]	IC50 ([8]; read-out: Sc IC50) [µg/mL]	IC50 [9, 24] [µM]	further results
N#CC(C#N)=NNc1cccc(Cl)c1 [CCCP, m-chlorophenylcarbonyl cyanide phenylhydrazone]	collapsed	–	–	–	–	–	–	–	–	–
C=CCN(C)CCCCCCOc1ccc(C(=O)c2ccc(Br)cc2)c(F)c1 [Ro 48-8071]	–	–	–	–	–	–	–	–	–	IC50 [2]: 9 µM
CC(C)(C)c1cc(C=C(C#N)C#N)cc(C(C)(C)C)c1O [SF6847, reference compound]	–	–	–	–	–	–	–	–	–	effect on ΔpH [3]: very rapid (seconds) collapse in ΔpH
CC(C)=CCC/C(C)=C/CNCCNC1C2CC3CC(C2)CC1C3 (centres unmarked) [compound 1, SQ109]	collapsed	0.1 to 0.2	> 120	7.6	2.8	3.3	6 (≈ 18.2 µM)	–	–	MIC ([4]; read-out: Mt MIC (in parentheses)): 0.3 to 0.6 µM; Sc IC50 [8]: 1.1 µg/mL; IC50 [11]: ≥ 50 µM; IC50 [12]: ≥ 50 µM; IC50 [13]: ≥ 50 µM; IC50 [14]: ≥ 50 µM; IC50 [15]: ≥ 50 µM; IC50 [16]: ≥ 50 µM; activity [17]: ~100 µM; activity [18]: ~100 µM; effect on nonreplicating bacterial activity (CFU) ([19]; 1 μg/mL, absence of MK-4): only a small effect; effect on nonreplicating bacterial activity (CFU) ([19]; 1 μg/mL, presence of 1 mM MK-4): essentially no effect; reduction of cell activity (CFU) ([19]; 10 μg/mL, 7 days exposure, absence of MK-4): ~4 log units; effect on nonreplicating bacterial activity (CFU) ([19]; 10 μg/mL, presence of 1 mM MK-4): small effect; IC50 [20]: ~30 µg/mL (≈ 90.8 µM); IC50 [21]: 30.3 µM
CC(C)=CCC/C(C)=C/COCCNC1C2CC3CC(C2)CC1C3 (centres unmarked) [compound 4]	–	~0.2	> 120	> 66	4.3	> 66	112 (≈ 338 µM)	> 33	> 199	Mt MIC [4]: 0.19 µg/mL; IC50 [6, 22]: > 199 µM; IC50 [8, 23]: > 100 µM; activity ([17]; SaCrtM, weak activity): ~100 µM; activity ([18]; human SQS, weak activity): ~100 µM
CC(C)=CCC/C(C)=C/COCCOC1C2CC3CC(C2)CC1C3 (centres unmarked) [compound 5]	–	–	> 64	> 66	> 332	> 66	73 (≈ 220 µM)	> 332	> 198	IC50 [6, 22]: > 199 µM; IC50 [7, 25]: > 1000 µM; IC50 [8, 23]: > 1000 µM; effect on ΔpH [3]: no effect
CC(C)=CCC/C(C)=C/CNCCCOC1C2CC3CC(C2)CC1C3 (centres unmarked) [compound 6]	–	1.6	~8 (≈ 23.2 µM)	3	2.3	6.5	3.4 (≈ 9.84 µM)	2.7	–	–
CC(C)=CCC/C(C)=C/C[N+](C)(C)CCOC1C2CC3CC(C2)CC1C3.[I-] (centres unmarked) [compound 7]	–	0.78	8	4.2	37	18	3.2	15	–	–
CC(C)=CCC/C(C)=C/CNC(=O)COC1C2CC3CC(C2)CC1C3 (centres unmarked) [compound 8]	–	0.78	> 120	> 69	> 345	> 69	12 (≈ 34.7 µM)	> 69	> 200	IC50 [6, 22]: > 200 µM; IC50 [7, 25]: > 1000 µM; IC50 [8, 23]: > 200 µM
CC(C)=CCC/C(C)=C/COCC(=O)NC1C2CC3CC(C2)CC1C3 (centres unmarked) [compound 9]	–	12	> 120	17	> 345	> 69	9.3 (≈ 26.9 µM)	> 69	> 200	IC50 [7, 25]: > 1000 µM; IC50 [8, 23]: > 200 µM
CC(C)=CCC/C(C)=C/CNCCOC(C)(C)C [compound 10]	–	6.2	> 16	> 50	> 126	> 50	45 (≈ 178 µM)	44	> 198	IC50 [6, 22]: > 198 µM; IC50 [7, 25]: > 498 µM
CC(C)=CCC/C(C)=C/CNCCOc1ccccc1 [compound 11]	–	6.2	32 (≈ 117 µM)	17	60	20	6.3 (≈ 23 µM)	3	–	–
CC(C)=CCC/C(C)=C/CNCCOc1cccc2ccccc12 [compound 12]	–	6.2	~8 (≈ 24.7 µM)	2.4	15	12	7.1 (≈ 21.9 µM)	3.7	–	–
CC(C)=CCC/C(C)=C/CNCCO[C@@H]1C[C@@H]2CC[C@@]1(C)C2(C)C [compound 13]	collapsed	–	~8 (≈ 24 µM)	1.8	12	6.3	1.3 (≈ 3.9 µM)	1 to 3	–	Sc IC50 [8]: 0.89 µg/mL
CO[C@@H]1C[C@@H](C[C@H]2CC[C@H](C)[C@H]([C@@H](C)C(=O)O)O2)O[C@]2(O[C@](C)([C@H]3CC[C@@](C)([C@@H]4O[C@@H]([C@H]5O[C@@](O)(CO)[C@H](C)C[C@@H]5C)C[C@@H]4C)O3)C[C@H]2C)[C@@H]1C [nigericin]	collapsed	–	–	–	–	–	–	–	–	–
CC(C)[C@@H]1NC(=O)[C@H](C)OC(=O)[C@@H](C(C)C)NC(=O)[C@@H](C(C)C)OC(=O)[C@H](C(C)C)NC(=O)[C@H](C)OC(=O)[C@@H](C(C)C)NC(=O)[C@@H](C(C)C)OC(=O)[C@H](C(C)C)NC(=O)[C@H](C)OC(=O)[C@@H](C(C)C)NC(=O)[C@@H](C(C)C)OC1=O [valinomycin]	no effect	–	–	–	–	–	–	–	–	–
